# Read-outs that look alike come from different tables or passages of the source.
# Experiments:
# [1] = tested on: P388 lymphocytic leukemia cell line; assay: PS in vitro: growth inhibition of P388 lymphocytic leukemia cell line, standard N.C.I. protocol; type: cell-based, murine
# Excerpt: Cephalostatin 1 was placed against the P388 lymphocytic leukemia cell line using standard National Cancer Institute ("N.C.I.") protocol with the following results:
# Cephalostatin 2 was placed against the P388 lymphocytic leukemia cell line using standard National Cancer Institute ("N.C.I.") protocol with the following results:
# Cephalostatin 3 was placed against the P388 lymphocytic leukemia cell line using standard National Cancer Institute ("N.C.I.") protocol with the following results:
# Cephalostatin 4 was placed against the P388 lymphocytic leukemia cell line using standard National Cancer Institute ("N.C.I.") protocol with the following results: […]
# [2] = tested on: murine P388 lymphocytic leukemia; assay: U.S. National Cancer Institute's murine P388 lymphocytic leukemia (PS system), life extension of host; type: in vivo; settings: for activity against murine P388 lymphocytic leukemia (PS system), in words: mouse, in vivo
Compound,ED50 (PS cell line) [1],Life Extension ([2]; 40 μg/Kg host body weight),"activity against murine P388 lymphocytic leukemia (PS system), in words [2]",ED50 (PS cell line) ([1]; listed as cephalostatin 4),Life Extension ([2]; 100 μg/Kg host body weight)
C[C@@H]1[C@]2(O[C@H]3C=C4[C@@H]5CC[C@H]6Cc7nc8c(nc7C[C@]6(C)[C@H]5C[C@@H](O)[C@]4(C)[C@]31O)C[C@@H]1CC[C@H]3C4=CC[C@@H]5[C@H](C)[C@@]6(OC[C@]45C(=O)C[C@@H]3[C@@]1(C)C8)OC(C)(C)C[C@H]6O)O[C@](C)(CO)C[C@H]2O [Cephalostatin 1],10^-7 to 10^-9 μg/ml,31%,confirmed active level,–,–
C[C@@H]1[C@]2(O[C@H]3C=C4[C@@H]5CC[C@H]6Cc7nc8c(nc7C[C@]6(C)[C@H]5C[C@@H](O)[C@]4(C)[C@]31O)C[C@@H]1CC[C@H]3C4=CC[C@@H]5[C@H](C)[C@@]6(OC[C@]45C(=O)C[C@]3(O)[C@@]1(C)C8)OC(C)(C)C[C@H]6O)O[C@](C)(CO)C[C@H]2O [Cephalostatin 2],10^-7 to 10^-9 μg/ml,35%,confirmed active level,–,–
C[C@@H]1[C@]2(O[C@H]3C=C4[C@@H]5CC[C@H]6Cc7nc8c(nc7C[C@]6(C)[C@H]5C[C@@H](O)[C@]4(C)[C@]31O)C[C@@H]1CC[C@H]3C4=CC[C@@H]5[C@H](C)[C@@]6(OC[C@]45C(=O)C[C@]3(O)[C@@]1(C)C8)OC(C)(C)[C@@H](C)[C@H]6O)O[C@](C)(CO)C[C@H]2O [Cephalostatin 3],10^-7 to 10^-9 μg/ml,30%,confirmed active level,–,–
C[C@@H]1[C@]2(O[C@H]3C=C4[C@@H]5CC[C@H]6Cc7nc8c(nc7C[C@]6(C)[C@H]5C[C@@H](O)[C@]4(C)[C@]31O)C[C@@H]1CC[C@H]3[C@@]45O[C@@H]4C[C@@H]4[C@H](C)[C@@]6(OC[C@@]45C(=O)C[C@]3(O)[C@@]1(C)C8)OC(C)(C)C[C@H]6O)O[C@](C)(CO)C[C@H]2O [Cephalostatin 4],0.00055 µg/mL,–,confirmed active level,10^-7 to 10^-9 μg/ml,25%

# Reference: US4873245A, “Isolation and structural elucidation of cephalostatins 1-4” (Arizona Board of Regents, priority 1988, dated 1989)
